Assay results as given in PubChem BioAssay (NCI).
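Cells were grown in 96-well plates and exposed to each compound for 48 hours at five concentrations; endpoints were interpolated linearly between bracketing concentrations, or set to the highest concentration if not reached. The concentration for 50% growth inhibition is given as GI50. Definition used: TGI = concentration required for complete inhibition of growth.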

Tests used:
Assay in all cases: inhibition of tumour cell growth, NCI panel, 48 h
786-0 renal = tested on: 786-0 renal
A498 renal = tested on: A498 renal
COLO 205 colon = tested on: COLO 205 colon
DMS 114 small cell lung = tested on: DMS 114 small cell lung
KM20L2 colon = tested on: KM20L2 colon
OVCAR-4 ovarian = tested on: OVCAR-4 ovarian
OVCAR-8 ovarian = tested on: OVCAR-8 ovarian
SR leukemia = tested on: SR leukemia
SW-620 colon = tested on: SW-620 colon
TK-10 renal = tested on: TK-10 renal

| Compound | TGI (786-0 renal) [µM] | TGI (A498 renal) [µM] | TGI (COLO 205 colon) [µM] | TGI (DMS 114 small cell lung) [µM] | TGI (KM20L2 colon) [µM] | TGI (OVCAR-4 ovarian) [µM] | TGI (OVCAR-8 ovarian) [µM] | TGI (SR leukemia) [µM] | TGI (SW-620 colon) [µM] | TGI (TK-10 renal) [µM] | GI50 (786-0 renal) [µM] | GI50 (A498 renal) [µM] | GI50 (COLO 205 colon) [µM] | GI50 (OVCAR-4 ovarian) [µM] | GI50 (OVCAR-8 ovarian) [µM] | GI50 (SR leukemia) [µM] | GI50 (SW-620 colon) [µM] | GI50 (TK-10 renal) [µM] | GI50 (KM20L2 colon) [µM] |
| --- | --- | --- | --- | --- | --- | --- | --- | --- | --- | --- | --- | --- | --- | --- | --- | --- | --- | --- | --- |
| O=C(COc1ccc(Cl)cc1)N1N=C(c2ccc(Cl)cc2)CC1(O)c1ccccc1 (centres undefined) | 28.3 | 26.5 | 54.6 | > 100 | > 50.9 | 21 | 30 | 17.7 | > 69.3 | > 78 |  |  |  |  |  |  |  |  |  |
| O=C(O)CN(CC(=O)O)Cc1cc(C#Cc2ccc(C#Cc3ccccc3)cc2)cc(CN(CC(=O)O)CC(=O)O)n1 | 47.1 | > 100 | 36.2 | 47 | > 76.3 | 56 | > 60.6 | > 62.5 | > 68 | > 86.2 |  |  |  |  |  |  |  |  |  |
| CC1=C(C(=O)Nc2cc(=O)n(C)c(=O)n2C)C(c2ccco2)C(C(=O)Nc2cc(=O)n(C)c(=O)n2C)=C(C)N1 | > 100 | > 100 | > 100 | > 100 | > 100 | > 100 | > 100 |  | > 100 | > 100 |  |  |  |  |  |  |  |  |  |
| CSC(=Nc1nnc(-c2ccc([N+](=O)[O-])cc2)s1)SC | 55.5 | 64.6 | > 100 | > 82 | > 100 | > 85 | > 100 | > 100 | > 100 | 44.8 |  |  |  |  |  |  |  |  |  |
| O=[N+]([O-])c1ccc(C[P+](c2ccccc2)(c2ccccc2)c2ccccc2)cc1 | > 100 | > 100 | > 100 | > 100 | > 100 |  | > 100 | > 100 | > 100 | > 100 |  |  |  |  |  |  |  |  |  |
| CCCCCCCCCCCc1nnc(N)o1 | > 100 |  | > 100 |  | > 100 | > 100 | > 100 |  | > 100 | > 100 |  |  |  |  |  |  |  |  |  |
| O=C(O)C1=C(O)C(C(=O)O)C23CCCCCCCCCCC12C(C(=O)O)C(O)=C3C(=O)O (centres undefined) | > 100 |  | > 100 | > 100 |  |  | > 100 | > 100 | > 100 | > 100 |  |  |  |  |  |  |  |  |  |
| COc1ccc(C23C(=O)c4ccccc4N2O[C@H]2C(=O)N(c4ccccc4)C(=O)[C@H]23)cc1 (some centres undefined) | > 100 | > 100 | > 100 | > 100 | > 100 | > 100 | > 100 |  | > 100 | > 100 |  |  |  |  |  |  |  |  |  |
| Cc1cc(CC(=O)NCCO)n(CCO)c(=O)c1 | > 100 |  | > 100 | > 100 |  | > 100 | > 100 | > 100 | > 100 | > 100 |  |  |  |  |  |  |  |  |  |
| C=C(C)[C@@H]1CC[C@]2(C)CC[C@]3(C)[C@H](CC[C@@H]4[C@@]5(C)CC[C@H](O)C(C)(C)[C@@H]5CC[C@]43C)[C@@H]12 | > 63.8 | 32.6 | > 100 | > 100 | > 100 | > 100 | > 64.2 | > 100 | > 72.3 | > 100 |  |  |  |  |  |  |  |  |  |
| CCCCCCCCNc1cc2c3c(c1)CCCN3CCC2 | 13.7 | 18.7 | 4.76 |  |  | 12 | 20.3 | > 100 | 13.3 | 22 | 3.31 | 4.2 | 1.87 | 1.94 | 1.87 | 0.551 | 2.14 | 5.69 |  |
| O=C1N(C2CCCCC2)CC12CCCCC2 | > 100 | > 100 | > 100 | > 100 | > 100 | > 100 | > 100 |  | > 100 | > 100 |  |  |  |  |  |  |  |  |  |
| COc1ccc(/C=C/C(=O)c2cc(OC)c(OC)c(OC)c2)cc1OCc1cn(Cc2ccc(F)cc2)nn1 | > 100 | 56.2 | 8.38 |  |  | > 100 | 31.5 | > 100 | > 100 | 8.06 | 4.44 | 12.2 | 2.98 | 3.42 | 2.58 | 0.843 | 3.16 | 3 |  |
| O=C(O)CCC(=O)N1c2ccccc2CC1c1c[nH]c2ccccc12 (centres undefined) | > 100 | > 100 | > 100 | > 100 | > 100 | > 100 | > 100 |  | > 100 | > 100 |  |  |  |  |  |  |  |  |  |
| Cc1nnn[n-]1.N.N.N.N.N.[Cl-].[Co+3] | > 100 | 72 | > 100 |  | > 100 |  | > 100 | > 100 | > 100 | > 100 | > 100 | 4.14 | > 100 |  | > 100 | > 100 | > 100 | > 100 | > 100 |
| O=C(Oc1cccc(F)c1OC(=O)c1cccc(O)c1)c1cccc(O)c1 | > 100 | > 100 | 73.7 |  |  | > 100 | > 100 | > 100 | > 100 | > 100 | 37 | > 100 | 24.4 | 15.2 | 22.8 | 7.91 | 37.4 | 98.6 |  |
| COC(=O)NC(=O)c1cn(C2OC(CO)C(O)C2O)c(=O)[nH]c1=O (centres undefined) | > 100 |  | > 100 |  | > 100 | > 100 | > 100 | > 100 | > 100 | > 100 |  |  |  |  |  |  |  |  |  |
